Here are results for 18 compounds from ChEMBL document CHEMBL3621161, “Conformationally restrained carbamoylcholine homologues. Synthesis, pharmacology at neuronal nicotinic acetylcholine receptors and biostructural considerations” (Eur J Med Chem, 2015).

Calls of active or inactive are those of the source. No cut-off for these calls is given here.

Usually EC50 stands for the midpoint of the concentration-response curve. A high value points to weaker potency. One may read the pEC50 as the negative decadic logarithm of the EC50, by convention in mol/L. A low value points to a large EC50. The pKi is the Ki on a negative log10 scale, so that one unit is a factor of ten.

Assay [1] concerns the target Neuronal acetylcholine receptor; alpha4/beta2 (Rattus norvegicus, UniProt P09483+P12390). In words: Displacement of [3H]epibatidine from rat neuronal acetylcholine receptor subunit alpha4beta2 expressed in HEK293 cell membranes incubated for 4 hrs by scintillation counting method. (Loss of bound radioactivity is the signal in a displacement assay; it reports binding, not function.)

Assay [2] has as its target Neuronal acetylcholine receptor; alpha4/beta4 (Rattus norvegicus, UniProt P09483+P12392). The assay can be described thus: Displacement of [3H]epibatidine from rat neuronal acetylcholine receptor subunit alpha4beta4 expressed in HEK293 cell membranes incubated for 4 hrs by scintillation counting method.
Assay [3] deals with T1, Neuronal acetylcholine receptor; alpha3/beta4 (Rattus norvegicus, UniProt P04757+P12392). The assay can be described thus: Displacement of [3H]epibatidine from rat neuronal acetylcholine receptor subunit alpha3beta4 expressed in HEK293 cell membranes incubated for 4 hrs by scintillation counting method. Conditions: for pKi: hek293.
T1 sequence (P04757 whole entry): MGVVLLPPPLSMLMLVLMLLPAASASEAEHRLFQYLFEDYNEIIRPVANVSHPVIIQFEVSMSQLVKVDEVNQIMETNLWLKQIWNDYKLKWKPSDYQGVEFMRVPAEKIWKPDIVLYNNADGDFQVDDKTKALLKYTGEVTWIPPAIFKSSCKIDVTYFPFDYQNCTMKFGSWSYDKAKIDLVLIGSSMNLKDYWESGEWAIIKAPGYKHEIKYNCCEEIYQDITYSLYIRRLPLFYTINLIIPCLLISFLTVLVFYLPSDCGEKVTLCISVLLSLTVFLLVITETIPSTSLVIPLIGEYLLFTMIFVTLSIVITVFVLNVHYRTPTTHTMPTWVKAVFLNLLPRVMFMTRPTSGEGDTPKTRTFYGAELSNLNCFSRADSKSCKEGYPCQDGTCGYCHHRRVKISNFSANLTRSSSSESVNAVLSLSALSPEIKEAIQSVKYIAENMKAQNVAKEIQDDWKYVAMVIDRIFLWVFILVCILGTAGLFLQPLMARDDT
T1 sequence (P12392 whole entry): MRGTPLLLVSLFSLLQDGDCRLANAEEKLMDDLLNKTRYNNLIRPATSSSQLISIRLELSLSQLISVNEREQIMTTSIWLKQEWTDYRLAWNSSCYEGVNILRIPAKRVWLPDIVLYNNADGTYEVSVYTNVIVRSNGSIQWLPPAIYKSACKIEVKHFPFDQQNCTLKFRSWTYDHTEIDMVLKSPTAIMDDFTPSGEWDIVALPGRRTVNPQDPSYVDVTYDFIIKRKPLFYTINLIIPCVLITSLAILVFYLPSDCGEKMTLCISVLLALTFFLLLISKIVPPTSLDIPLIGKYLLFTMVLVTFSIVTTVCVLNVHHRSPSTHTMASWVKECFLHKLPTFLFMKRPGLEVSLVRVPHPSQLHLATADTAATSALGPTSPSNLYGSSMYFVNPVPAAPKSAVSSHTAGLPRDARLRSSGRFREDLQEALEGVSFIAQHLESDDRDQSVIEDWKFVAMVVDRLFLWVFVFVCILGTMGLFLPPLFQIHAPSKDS
The target in assay [4] is Neuronal acetylcholine receptor subunit alpha-4/beta-2 (Mus musculus) (UniProt Q9ERK7+O70174). In words: Agonist activity at mouse neuronal acetylcholine receptor subunit alpha4beta2 expressed in HEK293T cells at 300 uM by FMP assay. It counts as cell-based. Conditions: HEK-293T.
Chain of Neuronal acetylcholine receptor subunit alpha-4/beta-2 (Mus musculus) (O70174 31-629 partner limits assumed): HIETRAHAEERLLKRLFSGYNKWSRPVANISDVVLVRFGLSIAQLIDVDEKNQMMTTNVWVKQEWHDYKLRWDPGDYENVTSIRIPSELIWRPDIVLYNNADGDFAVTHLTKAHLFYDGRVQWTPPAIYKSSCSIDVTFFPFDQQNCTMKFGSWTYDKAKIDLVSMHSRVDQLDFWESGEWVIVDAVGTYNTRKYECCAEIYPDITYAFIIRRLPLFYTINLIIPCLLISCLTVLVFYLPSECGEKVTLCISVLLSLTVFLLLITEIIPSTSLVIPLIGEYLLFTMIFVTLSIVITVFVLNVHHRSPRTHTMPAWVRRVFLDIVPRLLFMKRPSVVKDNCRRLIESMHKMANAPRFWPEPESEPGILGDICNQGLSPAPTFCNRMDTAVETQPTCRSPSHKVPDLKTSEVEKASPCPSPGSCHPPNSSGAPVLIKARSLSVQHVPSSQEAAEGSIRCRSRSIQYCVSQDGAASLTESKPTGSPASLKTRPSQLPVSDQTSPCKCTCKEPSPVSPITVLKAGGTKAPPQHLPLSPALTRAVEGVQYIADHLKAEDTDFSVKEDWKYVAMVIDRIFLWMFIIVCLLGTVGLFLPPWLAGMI
Chain of Neuronal acetylcholine receptor subunit alpha-4/beta-2 (Mus musculus) (Q9ERK7 26-501 limits assumed): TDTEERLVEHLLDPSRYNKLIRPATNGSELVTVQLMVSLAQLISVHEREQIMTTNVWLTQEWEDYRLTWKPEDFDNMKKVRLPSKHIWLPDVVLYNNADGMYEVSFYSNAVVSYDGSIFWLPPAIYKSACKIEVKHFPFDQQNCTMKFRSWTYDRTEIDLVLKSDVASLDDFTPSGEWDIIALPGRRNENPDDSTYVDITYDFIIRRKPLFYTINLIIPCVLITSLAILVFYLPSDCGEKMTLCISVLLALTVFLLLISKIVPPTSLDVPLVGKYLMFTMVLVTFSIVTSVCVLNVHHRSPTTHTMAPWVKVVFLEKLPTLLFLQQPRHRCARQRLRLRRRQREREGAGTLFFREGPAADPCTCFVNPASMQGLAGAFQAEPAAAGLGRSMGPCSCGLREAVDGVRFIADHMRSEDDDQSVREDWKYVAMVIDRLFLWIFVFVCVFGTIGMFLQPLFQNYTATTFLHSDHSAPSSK
Assay [5] deals with T1, Neuronal acetylcholine receptor; alpha3/beta4. In words: Agonist activity at rat neuronal acetylcholine receptor subunit alpha3beta4 expressed in HEK293 cells at 1 mM by FMP assay. To be noted: for pEC50: hek293. It counts as cell-based.
The target in assay [6] is Neuronal acetylcholine receptor subunit alpha-4/beta-2 (Mus musculus, UniProt O70174+Q9ERK7). The assay can be described thus: Agonist activity at mouse neuronal acetylcholine receptor subunit alpha4beta2 expressed in HEK293T cells by FMP assay. Type of assay: cell-based, HEK-293T.
Chain of Neuronal acetylcholine receptor subunit alpha-4/beta-2 (Q9ERK7 whole entry): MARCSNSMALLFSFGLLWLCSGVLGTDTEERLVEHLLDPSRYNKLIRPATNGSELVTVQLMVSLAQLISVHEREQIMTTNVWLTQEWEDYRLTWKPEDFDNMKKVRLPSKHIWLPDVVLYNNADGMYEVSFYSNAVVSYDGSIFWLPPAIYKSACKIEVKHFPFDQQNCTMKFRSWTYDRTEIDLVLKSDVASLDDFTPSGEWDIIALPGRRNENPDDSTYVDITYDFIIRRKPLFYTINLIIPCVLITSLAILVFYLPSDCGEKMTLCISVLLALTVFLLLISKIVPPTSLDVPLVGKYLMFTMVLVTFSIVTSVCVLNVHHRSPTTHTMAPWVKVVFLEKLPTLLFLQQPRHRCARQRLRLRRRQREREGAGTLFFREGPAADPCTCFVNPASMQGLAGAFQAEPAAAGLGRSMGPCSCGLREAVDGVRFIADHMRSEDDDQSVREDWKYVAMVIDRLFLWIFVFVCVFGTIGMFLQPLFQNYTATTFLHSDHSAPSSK
Chain of Neuronal acetylcholine receptor subunit alpha-4/beta-2 (O70174 whole entry): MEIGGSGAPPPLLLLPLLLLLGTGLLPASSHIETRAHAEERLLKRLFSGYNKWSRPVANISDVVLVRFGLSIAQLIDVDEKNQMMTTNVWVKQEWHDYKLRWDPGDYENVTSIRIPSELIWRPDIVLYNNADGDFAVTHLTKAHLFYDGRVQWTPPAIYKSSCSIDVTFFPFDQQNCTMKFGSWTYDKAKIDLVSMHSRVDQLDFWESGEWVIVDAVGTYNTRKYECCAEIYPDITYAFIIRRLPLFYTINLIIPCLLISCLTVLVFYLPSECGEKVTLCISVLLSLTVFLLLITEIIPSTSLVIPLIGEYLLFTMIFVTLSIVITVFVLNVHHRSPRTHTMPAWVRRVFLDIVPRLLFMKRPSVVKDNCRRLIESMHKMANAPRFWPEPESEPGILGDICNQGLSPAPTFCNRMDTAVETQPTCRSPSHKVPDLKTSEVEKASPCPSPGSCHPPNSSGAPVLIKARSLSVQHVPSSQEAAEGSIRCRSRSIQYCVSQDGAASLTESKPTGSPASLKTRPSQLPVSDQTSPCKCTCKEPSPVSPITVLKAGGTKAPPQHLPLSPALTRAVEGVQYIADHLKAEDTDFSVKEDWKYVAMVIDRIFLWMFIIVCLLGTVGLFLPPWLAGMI
The target of assay [7] is T1, Neuronal acetylcholine receptor; alpha3/beta4. In words: Agonist activity at rat neuronal acetylcholine receptor subunit alpha3beta4 expressed in HEK293 cells by FMP assay. It counts as cell-based.
The target of assay [8] is Neuronal acetylcholine receptor; alpha3/beta4 (Rattus norvegicus) (UniProt P04757+P12392). In words: Agonist activity at rat neuronal acetylcholine receptor subunit alpha3beta4 expressed in HEK293 cells at 300 uM by FMP assay. It counts as cell-based.

Chain of Neuronal acetylcholine receptor; alpha4/beta2 (P09483 whole entry): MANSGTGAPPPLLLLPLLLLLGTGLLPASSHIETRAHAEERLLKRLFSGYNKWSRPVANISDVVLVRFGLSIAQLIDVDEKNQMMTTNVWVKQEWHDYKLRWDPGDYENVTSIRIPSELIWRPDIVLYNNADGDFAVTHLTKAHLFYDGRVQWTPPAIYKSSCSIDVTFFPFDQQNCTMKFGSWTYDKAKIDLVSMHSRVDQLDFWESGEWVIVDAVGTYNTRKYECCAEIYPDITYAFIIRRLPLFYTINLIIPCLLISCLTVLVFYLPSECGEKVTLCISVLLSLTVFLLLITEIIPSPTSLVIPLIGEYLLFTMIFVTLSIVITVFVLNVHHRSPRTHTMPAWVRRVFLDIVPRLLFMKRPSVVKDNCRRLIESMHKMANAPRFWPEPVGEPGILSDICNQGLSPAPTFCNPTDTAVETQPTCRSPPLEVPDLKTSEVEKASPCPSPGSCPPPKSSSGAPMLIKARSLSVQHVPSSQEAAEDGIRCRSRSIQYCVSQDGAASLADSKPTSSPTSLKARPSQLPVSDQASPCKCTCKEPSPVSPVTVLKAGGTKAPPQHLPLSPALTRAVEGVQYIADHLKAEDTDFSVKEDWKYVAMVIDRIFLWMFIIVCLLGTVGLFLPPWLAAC
Chain of Neuronal acetylcholine receptor; alpha4/beta2 (P12390 whole entry): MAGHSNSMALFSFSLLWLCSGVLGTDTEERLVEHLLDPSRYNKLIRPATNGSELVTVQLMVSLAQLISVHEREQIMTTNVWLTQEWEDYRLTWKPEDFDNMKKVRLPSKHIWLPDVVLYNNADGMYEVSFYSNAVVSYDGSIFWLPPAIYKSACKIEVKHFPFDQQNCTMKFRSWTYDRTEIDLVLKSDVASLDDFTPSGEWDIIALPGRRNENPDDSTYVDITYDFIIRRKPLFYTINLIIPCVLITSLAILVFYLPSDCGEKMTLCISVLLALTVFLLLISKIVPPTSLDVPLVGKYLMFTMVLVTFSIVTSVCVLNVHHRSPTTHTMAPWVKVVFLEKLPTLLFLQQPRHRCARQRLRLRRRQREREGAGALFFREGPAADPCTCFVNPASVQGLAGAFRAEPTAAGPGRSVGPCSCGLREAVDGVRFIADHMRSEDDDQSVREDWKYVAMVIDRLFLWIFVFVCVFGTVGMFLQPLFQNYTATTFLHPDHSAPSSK
Chain of Neuronal acetylcholine receptor; alpha4/beta4 (P09483 whole entry): as the sequence (P09483 whole entry) above
Chain of Neuronal acetylcholine receptor; alpha4/beta4 (P12392 whole entry): as the sequence (P12392 whole entry) above

Take `CNC(=S)N1CCC(N(C)C)C1` (racemic): the Ki stood at 2.3 µM in assay [1], 100 µM in assay [2] (read-out: Ki) and 300 µM in assay [3] (read-out: Ki). For the same compound, in assay [4], the outcome was Active. The same compound displayed an EC50 in assay [5] above 1000 µM. Moreover, in assay [5], the pEC50 is given as below 3.

Consider `CC(CCOC(=O)N(C)C)N(C)C` (configuration not stated), for which the Ki in assay [2] (read-out: pKi (converted)) and in assay [3] (read-out: pKi (converted)) was 0.02 µM throughout.

On to `CCNC(=O)N1CCN(C)CC1`, for which the values for the Ki in assay [1], in assay [2] (read-out: Ki) and in assay [3] (read-out: Ki) were 10 µM, 100 µM and 100 µM, respectively. Further, the result in assay [4] was Active. In addition, in assay [5], the EC50 is above 1000 µM. Moreover, the pEC50 in assay [5] was below 3.

For the compound `CN(C)C(=O)OC[C@H]1C[C@@H]1N(C)C` (racemic), the Ki in assay [1] was found to be 100 µM; in assay [2] (read-out: Ki) it was 1000 µM; in assay [3] (read-out: Ki), 1000 µM.

As to `CN1CCCN(C(=O)N(C)C)CC1`, the Ki in assay [1] is 50 µM; in assay [2] (read-out: Ki), 300 µM; in assay [3] (read-out: Ki), 300 µM.

With `CN(C)C(=O)N1CCCNCC1`, the results for the Ki in assay [1], in assay [2] (read-out: Ki) and in assay [3] (read-out: Ki) were 11 µM, 50 µM and 300 µM, respectively.

Consider `CN(C)C(=O)N1CCC(N(C)C)C1` (racemic), for which the Ki came out at 6.4 µM in assay [1], 2.3 µM in assay [2] (read-out: Ki) and 6.4 µM in assay [3] (read-out: Ki). Also, the EC50 in assay [6] was 10 µM; in assay [7], 32 µM.

In the case of `CCNC(=S)N1CCC(N(C)C)C1` (racemic), the Ki in assay [1] is 1.2 µM; in assay [2] (read-out: Ki) it was 300 µM; in assay [3] (read-out: Ki) it was above 1000 µM. Also, the pKi in assay [3] is below 3. In addition, the result in assay [4] was Active. The compound also showed an EC50 in assay [5] above 1000 µM. In addition, the pEC50 in assay [5] is on record as below 3.

Turning to `CCNC(=S)N1CCN(C)CC1`, the Ki was 5.8 µM in assay [1], 300 µM in assay [2] (read-out: Ki) and above 1000 µM in assay [3] (read-out: Ki). In assay [3], this compound had a pKi below 3. Besides, in assay [4], the result was Active. This compound also came in with a 50% effective concentration (EC50) in assay [7] of 100 µM.

With `CN(C)C(=O)OC[C@H]1C[C@H]1N(C)C` (racemic), the results for the Ki in assay [1], in assay [2] (read-out: Ki) and in assay [3] (read-out: Ki) were 1.5 µM, 14 µM and 14 µM, respectively. Besides, the result in assay [4] and in assay [8] was Active.

On to `CNC(=O)OC[C@H]1C[C@H]1N(C)C` (racemic), for which the Ki in assay [1] amounted to 2.1 µM; in assay [2] (read-out: Ki), 30 µM; in assay [3] (read-out: Ki), 50 µM. The outcome in assay [4] and in assay [8] was Active.

For `CN(C)C(=O)C1CCNCC1`, the Ki in assay [1], in assay [2] (read-out: Ki) and in assay [3] (read-out: Ki) was above 1000 µM each time. For the same compound, the pKi in assay [1] (hek293), in assay [2] (hek293) and in assay [3] was below 3 each time.

On to `CCNC(=O)N1CCC(N(C)C)C1` (racemic), for which the values for the Ki in assay [1], in assay [2] (read-out: Ki) and in assay [3] (read-out: Ki) were 5.7 µM, 30 µM and 30 µM, respectively. Besides, in assay [4], the outcome was Active. Also, a half-maximal effect in assay [7] (EC50) was put at 100 µM.

`CNC(=O)OC[C@H]1C[C@@H]1N(C)C.O=C(O)C(=O)O` (racemic): the Ki in assay [1] is 300 µM; in assay [2] (read-out: Ki) it was 1000 µM; in assay [3] (read-out: Ki) it was above 1000 µM. The negative-log Ki (pKi) in assay [3] is on record as below 3.

For the compound `CN1CCN(C(=O)N(C)C)CC1`, the figures for the Ki in assay [1], in assay [2] (read-out: Ki) and in assay [3] (read-out: Ki) were 30 µM, 50 µM and 50 µM, respectively.

For the compound `CNC(=S)N1CCN(C)CC1`, the Ki in assay [1] is 19 µM; in assay [2] (read-out: Ki), 500 µM; in assay [3] (read-out: Ki) it was above 1000 µM. The compound further returned a pKi in assay [3] below 3.

Consider `CC(CCOC(=O)N1CCCC1)N(C)C` (configuration not stated), for which the response in assay [6] was half-maximal at 7.1 µM (EC50).

As to `CN(C)C(=O)OC[C@H]1C[C@H]1N` (racemic), the Ki was 13 µM in assay [1], 100 µM in assay [2] (read-out: Ki) and 300 µM in assay [3] (read-out: Ki).
